Legend:
in vitro = settings: human, liver microsomes
[1] = cited from earlier work
[2] = Human liver microsome incubation study (metabolic stability)
[3] = human liver microsome incubation

## CCN(CC)CC#CCOC(=O)C(O)(c1ccccc1)C1CCCCC1 (racemic) [Oxybutynin]
In vitro
  half-life: 5.2 min
  microsomal CLint: 267 µL/min/mg
[1]; administered orally
  absolute bioavailability: about 6%
[1]; after oral administration, pre-systemic metabolism
  oral bioavailability: approximately 6.2%
[1]; after oral administration
  inter individual variation in maximal oxybutynin plasma concentration (Cmax): 8 fold
  inter individual variation in oxybutynin AUC: 13 fold
[1]; co-administered with ketoconazole vs without ketoconazole
  increase of oxybutynin plasma levels: 3-4 fold

## CCNCC#CCOC(=O)C(O)(c1ccccc1)C1CCCCC1 (stereo not shown) [N-desethyloxybutynin, 4-(ethylamino) but-2-ynyl2-cyclohexyl-2-hydroxy-2-phenylacetate]
[2]; compared with oxybutynin
  stability to metabolism by human liver microsomes relative to oxybutynin: 10 times
[2]; [3]
  Clint: 0.0218 ml/min/mg protein
  Half Life: >60 (63.6) mins
